Data on one compound can be found in patent publication US11530216B2, “Deuterated colony stimulating factor-1 receptor (CSF-1R) inhibitors” (Genzyme Corporation, priority 2020, dated 2022).

What all share (format): cell-based
Data set [1] has as its system iCell microglia (human iPSC derived microglia). Nature of the data set: CellTiter Glo 2.0 viability assay, iCell human microglia, CSF1 stimulation. To be noted: 1.5625-200 nM, CSF1 100 ng/mL 24 hours. As for the experimental part:
iCell microglia (human iPSC derived microglia) were acquired from FujiFilm (cat #C1110, lot #105458). These cells were thawed and maintained in iCell Microglia Complete Media according the manufacture instructions. For this assay, iCell microglia were resuspended at a concentration of 5×10^5 cells/mL and 100 μL of this cell suspension was added to the inner 60 wells of a 96-well plate. iCell microglia were allowed to rest overnight at 37° C., 5% CO2. The following evening, the media was removed and replaced with Neurobasal Media (Gibco, cat #21103049) containing B27 supplement (Gibco, cat #17504044). Again, cells were allowed to rest overnight at 37° C., 5% CO2. […] Cells were then stimulated with 100 ng/mL recombinant human CSF1 for 24 hours. After stimulation, the culture supernatant was removed from each well and aliquoted into two different 96-well plates for subsequent ELISA assays.
Cell viability was determined using the CellTiter Glo 2.0 Luminescent Cell Viability Assay (Promega, cat #G9242). […] 100 μL was transferred from each well to a white plate and luminescence was read immediately on the FlexStation3 Multi-Mode Microplate Reader (Molecular Devices, cat #Flex3) with SoftMax Pro Software.
iCell microglia (human iPSC derived microglia) were plated at 50,000 cells per well and rested overnight. […] Cell viability was assessed utilizing Promega's Cell Titer Glo Assay Kit. […]
(Cellular ATP, detected with luciferase, serves as a proxy for viable cell number.)

Data set [2] has as its system MCP-1 production in primary murine microglial cells. Briefly: MCP-1 ELISA, primary mouse microglia after CSF-1 stimulation. Particulars: Mus musculus, Microglia, 24 h, read-out: IC50, MCP-1 production. As for the experimental part:
Primary mouse microglia were suspended at a concentration of 5×10^5 cells/mL and 100 μL of this cell suspension was added to the inner 60 wells of three 96-well plates. Microglia cells were allowed to rest overnight at 37° C., 5% CO2. […] Cells were then stimulated with 100 ng/mL recombinant mouse CSF-1 for 24 hours. After stimulation, the culture supernatant was removed from each well and aliquoted into two different 96-well plates for subsequent ELISA assays. Plates were fixed with 4% PFA for future immunocytochemistry analysis.
(In general: An ELISA detects its analyte on a solid surface through an enzyme-linked reagent.)

The test system of data set [3] is MCP-1 production in primary mouse microglia (wild type, SOD1). Nature of the data set: MCP-1 ELISA, wild-type and SOD1 primary microglia, CSF-1 stimulation. Particulars: CSF-1 stimulation, 50, 100, 200 nM, wild type and SOD1 cells. As for the experimental part: The impact of a deuterated CSF-1R inhibitor of this disclosure on cytokine/chemokine production following CSF-1 or LPS stimulation in wild-type versus SOD1 mutant primary microglial cells was examined in the following experiments.
Methods Treatment and Stimulation of Primary Microglial Cells
Primary mouse microglia were suspended at a concentration of 5×10^5 cells/mL and 100 μL of this cell suspension was added to each well of a 96-well plate. Microglia cells were allowed to rest overnight at 37° C., 5% CO2. […] Cells were then stimulated with 100 ng/mL recombinant mouse M-CSF for 30 minutes or 10 ng/mL lipopolysaccharide for 24 hours. After stimulation, the culture supernatant was removed from each well and aliquoted into two different 96-well plates for subsequent ELISA assays.
Culture supernatants were assayed with the Quantikine Mouse MCP-1 ELISA kit from R&D Systems (cat #SMJE00B). Samples were diluted 1:10 with Calibrator Diluent. Fifty microliters of Assay Diluent were first added to each well. Fifty microliters of Standards, Assay Control and diluted Sample were then added to the wells. The plate was mixed by gently tapping the frame, then sealed with an adhesive strip. The plate incubated for 2 hours at room temperature. […] After incubation, the acid stop solution was added to each well, and the plate was read on the ELISA plate reader at 450 nm.

The IC50 is the concentration at which inhibition is half-maximal. `[2H]c1nc2cccnc2n1Cc1cc(OC)c2c(c1)O[C@@H](C)[C@H](c1ccc(OC)nc1)O2` [Compound 6, 3-(((2S,3S)-8-methoxy-2-(6-methoxypyridin-3-yl)-3-methyl-2,3-dihydrobenzo[b][1,4]dioxin-6-yl)methyl)-3H-imidazo[4,5-b]pyridine-2-d]: the human microglia viability entry in data set [1] is on record as “did not impact human microglia viability at the concentrations assessed”. Further, the half-maximal inhibitory concentration (IC50) in data set [2] turned out to be 0.0232 µM. The MCP-1 production result in data set [3] is on record as “significantly reduced MCP-1 production in a concentration dependent manner”.
